Reference: paper doi:10.1101/2025.09.05.674519v1 (biorxiv, 2025)
Structures can show the parent of a compound that is named as a salt.

How the values were obtained:
[1] = target: T1, ULK2 (recombinant human ULK2 protein 1-478, ADP-Glo) (Homo sapiens, UniProt Q8IYT8); test: ADP-Glo kinase assay; type: biochemical
T1 sequence (Q8IYT8 1-478): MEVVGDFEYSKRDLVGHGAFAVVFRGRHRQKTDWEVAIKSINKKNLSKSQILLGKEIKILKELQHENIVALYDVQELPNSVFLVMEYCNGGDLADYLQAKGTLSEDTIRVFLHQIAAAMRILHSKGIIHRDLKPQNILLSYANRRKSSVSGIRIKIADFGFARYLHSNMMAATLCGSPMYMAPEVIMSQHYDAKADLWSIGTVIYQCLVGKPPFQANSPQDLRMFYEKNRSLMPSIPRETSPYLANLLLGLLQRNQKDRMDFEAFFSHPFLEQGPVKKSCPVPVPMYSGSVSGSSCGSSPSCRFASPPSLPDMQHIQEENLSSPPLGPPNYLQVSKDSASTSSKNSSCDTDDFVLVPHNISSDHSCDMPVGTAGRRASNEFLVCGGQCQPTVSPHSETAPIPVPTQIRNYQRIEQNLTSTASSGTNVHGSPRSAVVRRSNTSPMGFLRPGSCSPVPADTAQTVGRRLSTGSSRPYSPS

NanoLuc-ULK2 (NanoBRET) [2] = target: T2, NanoLuc-ULK2 (NanoBRET) (Homo sapiens, UniProt Q8IYT8); test: NanoBRET tracer displacement in live HEK293T cells; type: cell-based
T2 sequence (Q8IYT8 1-1036): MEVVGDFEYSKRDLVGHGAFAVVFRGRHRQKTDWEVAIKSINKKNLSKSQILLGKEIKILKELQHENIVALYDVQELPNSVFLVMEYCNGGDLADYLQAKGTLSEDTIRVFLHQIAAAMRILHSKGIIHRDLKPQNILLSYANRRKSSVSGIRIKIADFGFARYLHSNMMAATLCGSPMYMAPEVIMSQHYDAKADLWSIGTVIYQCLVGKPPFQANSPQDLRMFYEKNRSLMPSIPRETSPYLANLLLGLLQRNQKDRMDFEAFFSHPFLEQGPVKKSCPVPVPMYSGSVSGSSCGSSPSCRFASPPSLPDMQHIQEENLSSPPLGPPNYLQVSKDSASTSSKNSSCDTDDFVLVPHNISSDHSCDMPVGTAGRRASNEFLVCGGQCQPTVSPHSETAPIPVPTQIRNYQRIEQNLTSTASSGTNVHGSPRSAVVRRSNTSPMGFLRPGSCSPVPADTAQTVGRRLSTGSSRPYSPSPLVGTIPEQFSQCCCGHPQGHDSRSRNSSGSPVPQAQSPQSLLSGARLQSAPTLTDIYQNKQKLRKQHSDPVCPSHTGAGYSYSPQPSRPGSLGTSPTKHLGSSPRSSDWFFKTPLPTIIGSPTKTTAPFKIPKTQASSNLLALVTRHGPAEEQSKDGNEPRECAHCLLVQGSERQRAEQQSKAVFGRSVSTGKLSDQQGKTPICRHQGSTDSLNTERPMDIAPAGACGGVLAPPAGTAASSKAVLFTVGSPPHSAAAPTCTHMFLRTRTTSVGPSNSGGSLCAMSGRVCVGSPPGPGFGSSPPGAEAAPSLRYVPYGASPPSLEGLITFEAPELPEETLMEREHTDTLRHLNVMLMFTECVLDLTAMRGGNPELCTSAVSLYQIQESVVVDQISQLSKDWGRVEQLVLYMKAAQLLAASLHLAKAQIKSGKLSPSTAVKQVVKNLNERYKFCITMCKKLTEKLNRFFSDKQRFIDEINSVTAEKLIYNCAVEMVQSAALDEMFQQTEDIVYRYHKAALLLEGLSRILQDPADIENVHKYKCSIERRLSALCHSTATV

[3] = target: T3, ULK2 kinase domain (1-276) (Homo sapiens, UniProt Q8IYT8); test: biochemical; conditions: read-out: ULK2 PTS (ºC)
T3 sequence (Q8IYT8 1-276): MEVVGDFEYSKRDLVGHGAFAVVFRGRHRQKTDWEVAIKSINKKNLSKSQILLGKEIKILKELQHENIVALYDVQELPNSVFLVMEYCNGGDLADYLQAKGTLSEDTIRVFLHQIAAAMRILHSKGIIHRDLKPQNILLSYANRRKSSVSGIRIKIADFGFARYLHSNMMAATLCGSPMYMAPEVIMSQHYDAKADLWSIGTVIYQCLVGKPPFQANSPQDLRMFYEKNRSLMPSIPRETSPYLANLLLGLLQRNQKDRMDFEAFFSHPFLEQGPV

[4] = target: T1, ULK2 (recombinant human ULK2 protein 1-478, ADP-Glo); test: biochemical
NanoLuc-ULK2 (NanoBRET) [5] = target: T2, NanoLuc-ULK2 (NanoBRET); test: cell-based; design: species or system HEK293T
NanoLuc-ULK1 (NanoBRET) = target: T4, NanoLuc-ULK1 (NanoBRET) (Homo sapiens, UniProt O75385); test: NanoBRET tracer displacement in live HEK293T cells; type: cell-based
T4 sequence (O75385 1-1050): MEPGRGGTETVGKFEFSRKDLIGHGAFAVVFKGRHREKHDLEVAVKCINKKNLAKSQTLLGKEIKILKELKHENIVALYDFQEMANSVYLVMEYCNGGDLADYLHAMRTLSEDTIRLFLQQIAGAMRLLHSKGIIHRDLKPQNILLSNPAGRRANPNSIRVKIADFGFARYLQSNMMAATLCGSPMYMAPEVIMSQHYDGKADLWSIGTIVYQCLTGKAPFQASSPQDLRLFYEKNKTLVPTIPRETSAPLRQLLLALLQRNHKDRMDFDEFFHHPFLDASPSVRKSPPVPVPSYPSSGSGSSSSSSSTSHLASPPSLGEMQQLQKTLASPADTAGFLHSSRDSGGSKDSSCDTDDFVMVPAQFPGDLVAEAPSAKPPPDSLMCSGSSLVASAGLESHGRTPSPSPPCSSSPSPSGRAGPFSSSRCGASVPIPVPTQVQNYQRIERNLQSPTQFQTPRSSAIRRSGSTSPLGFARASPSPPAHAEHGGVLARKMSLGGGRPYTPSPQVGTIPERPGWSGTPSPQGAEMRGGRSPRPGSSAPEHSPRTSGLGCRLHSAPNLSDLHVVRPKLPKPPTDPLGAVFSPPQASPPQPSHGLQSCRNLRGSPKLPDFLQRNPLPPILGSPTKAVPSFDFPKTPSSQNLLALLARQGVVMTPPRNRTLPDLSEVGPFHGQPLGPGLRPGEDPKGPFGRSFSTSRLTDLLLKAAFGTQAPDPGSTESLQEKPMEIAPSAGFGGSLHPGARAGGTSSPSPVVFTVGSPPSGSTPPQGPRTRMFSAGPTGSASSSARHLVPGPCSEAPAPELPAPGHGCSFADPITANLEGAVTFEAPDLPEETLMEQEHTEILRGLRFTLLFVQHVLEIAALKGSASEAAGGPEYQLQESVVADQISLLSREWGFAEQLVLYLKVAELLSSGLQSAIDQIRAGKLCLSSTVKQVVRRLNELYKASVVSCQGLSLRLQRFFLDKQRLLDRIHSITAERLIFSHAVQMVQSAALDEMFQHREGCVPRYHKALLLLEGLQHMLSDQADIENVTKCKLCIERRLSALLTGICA

[6] = target: T5, ULK1 (recombinant human ULK1 protein 1-649, ADP-Glo) (Homo sapiens, UniProt O75385); test: ADP-Glo kinase assay; type: biochemical
T5 sequence (O75385 1-649): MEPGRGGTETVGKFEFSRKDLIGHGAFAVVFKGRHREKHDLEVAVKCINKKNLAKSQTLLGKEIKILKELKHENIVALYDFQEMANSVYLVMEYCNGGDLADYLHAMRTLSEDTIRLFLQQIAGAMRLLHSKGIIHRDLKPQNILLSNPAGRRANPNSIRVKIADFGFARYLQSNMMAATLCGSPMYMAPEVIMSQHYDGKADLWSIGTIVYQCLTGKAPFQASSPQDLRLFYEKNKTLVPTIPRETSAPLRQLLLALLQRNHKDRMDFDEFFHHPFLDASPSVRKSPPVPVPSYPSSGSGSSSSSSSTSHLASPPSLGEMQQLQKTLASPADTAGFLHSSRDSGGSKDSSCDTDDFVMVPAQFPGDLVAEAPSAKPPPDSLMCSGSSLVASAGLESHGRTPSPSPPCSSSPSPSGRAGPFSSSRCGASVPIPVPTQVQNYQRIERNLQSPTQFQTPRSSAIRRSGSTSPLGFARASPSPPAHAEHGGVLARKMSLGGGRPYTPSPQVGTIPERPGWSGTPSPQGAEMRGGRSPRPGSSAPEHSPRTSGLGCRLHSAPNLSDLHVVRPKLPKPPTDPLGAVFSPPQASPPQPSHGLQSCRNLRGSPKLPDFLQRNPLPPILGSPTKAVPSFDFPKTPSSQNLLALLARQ

SMILES	IC50 [1] [nM]	IC50 (NanoLuc-ULK2 (NanoBRET) [2]) [nM]	ΔTm at 10 µM [3] [°C]	IC50 [4] [nM]	IC50 (NanoLuc-ULK2 (NanoBRET) [5]) [nM]	IC50 (NanoLuc-ULK1 (NanoBRET)) [nM]	IC50 [6] [nM]
COc1cc(Nc2ncc(C(F)(F)F)c(NC3CC3)n2)cc(OC)c1OC [compound 1]	64 ± 22	172 ± 33					
O=C1CCc2cc(Nc3ncc(C(F)(F)F)c(NC4CC4)n3)ccc2N1 [compound 2, 6-((4-(Cyclopropylamine)-5-(trifluoromethyl)pyrimidine-2-yl)amino)-3,4-dihydroquinoline-2(1H)-one]	118 ± 34	174					
O=C1Cc2cc(Nc3ncc(C(F)(F)F)c(NC4CC4)n3)ccc2N1 [compound 3, 5-((4-(Cyclopropylamine)-5-(trifluoromethyl)pyrimidin-2-yl)amino)indolin-2-one]			3 ± 1.3	704 ± 63	1100 ± 454		
COc1cc(Nc2ncc(Br)c(NC3CC3)n2)cc(OC)c1OC [compound 6, 5-Bromo-N4-cyclopropyl-N2-(3,4,5-trimethoxyphenyl)pyrimidine-2,4-diamine]			7 ± 0.7	217 ± 108	1470 ± 261		
O=C1CCc2cc(Nc3ncc(Br)c(NC4CC4)n3)ccc2N1 [compound 7, 6-((5-Bromo-4-(cyclopropylamine)pyrimidin-2-yl)amino)-3,4-dihydroquinolin-2(1H)-one]			2 ± 0.8	896 ± 92	1580 ± 325		

Now from value to molecule:

IC50 [1] [nM]	IC50 (NanoLuc-ULK2 (NanoBRET) [2]) [nM]	ΔTm at 10 µM [3] [°C]	IC50 [4] [nM]	IC50 (NanoLuc-ULK2 (NanoBRET) [5]) [nM]	IC50 (NanoLuc-ULK1 (NanoBRET)) [nM]	IC50 [6] [nM]	SMILES
					> 10000	2330 ± 667	O=C1CCc2cc(Nc3nccc(NC4CC4)n3)ccc2N1 [compound 8, 8]
					> 10000	25 ± 6	O=C1CCc2cc(Nc3ncc(C(F)(F)F)c(NC4CCCC4)n3)ccc2N1 [compound 12, 6-((4-(Cyclopentylamine)-5-(trifluoromethyl)pyrimidin-2-yl)amino)-3,4-dihydroquinolin-2(1H)-one]
		4 ± 0.1	464 ± 90	1820 ± 599			O=C1CCc2cc(Nc3ncc(C(F)(F)F)c(NCC(F)(F)F)n3)ccc2N1 [compound 14, 6-((4-((2,2,2-Trifluoroethyl)amino)-5-(trifluoromethyl)pyrimidin-2-yl)amino)-3,4 dihydroquinolin-2(1H)-one]
		8 ± 0.1	980 ± 62	875 ± 131			O=C1CCc2cc(Nc3ncc(C(F)(F)F)c(NCCO)n3)ccc2N1 [compound 15, 6-((4-((2-Hydroxyethyl)amino)-5-(trifluoromethyl)pyrimidin-2-yl)amino)-3,4-dihydroquinolin-2(1H)-one]
		7.5	480 ± 65	77 ± 13			NCCCNc1nc(Nc2ccc3c(c2)CCC(=O)N3)ncc1C(F)(F)F [compound 19, 6-((4-((3-Aminopropyl)amino)-5-(trifluoromethyl)pyrimidin-2-yl)amino)-3,4 dihydroquinolin-2(1H)-one·HCl]
50 ± 12	44 ± 10	8 ± 0.6					O=C1CCc2cc(Nc3ncc(C(F)(F)F)c(NCCCNC(=O)C4CC4)n3)ccc2N1 [compound 21, N-(3-((2-((2-Oxo-1,2,3,4-tetrahydroquinolin-6-yl)amino)-5-(trifluoromethyl)pyrimidin-4-yl)amino)propyl)cyclopropanecarboxamide]
